# Results from US10682420B2, “Breast cancer therapy based on hormone receptor status with nanoparticles comprising taxane” (Abraxis BioScience, LLC, priority 2006, dated 2020).
# Assays:
# [1] = tested on: metastatic breast cancer; details: in vivo
# Source text: Patients were HER-2/neu negative with a life expectancy of greater than 3 months. Patients had no prior chemotherapy for metastatic disease, no prior capecitabine therapy, and no prior fluoropyrimidine therapy and paclitaxel chemotherapy given in an adjuvant setting.
# The primary endpoint was objective response rate and safety/toxicity, with evaluation performed after every 2 cycles. A secondary endpoint was time to progression.
# [2] = tested on: metastasis of luciferase-expressing MDA-MB-231 tumor cells to the lymph nodes and lungs; test: Abraxane and Avastin on metastasis by luciferase activity; assay type: in vivo, female nude (nu/nu) mice
# Experimental: Abraxane®, either alone or in combination, was administered at 10 mg/kg/day daily for 5 days in two cycles separated by 1 week. Some groups were administered Abraxane® at 10 mg/kg daily for 5 days for only one cycle. […] Mice were sacrificed when the mean tumor volume in the saline-treated control group reached 2000 mm^3. Axillary lymph nodes and both lobes of the lungs were removed from each mouse and cellular extracts were prepared. The presence of MDA-MB-231 cells in these tissues was evaluated by analysis of luciferase activity and was an indicator of metastasis from the primary tumor. Luciferase activity was measured in extracts from 10 lymph nodes and both lobes of the lungs on the day of sacrifice (day 65 after tumor implantation). A value greater than 500 light units per 20 μl lysate was rated as positive for presence of MDA-MB-231 cells and for incidence of metastasis.
# As used herein, incidence refers to the presence of luciferase activity in tissue from each mouse.
# [3] = tested on: cells; test: In vitro clonogenic assay; assay type: cell-based
# Experimental: Cells were treated with saline control, Abraxane® alone, VEGF-A alone, Avastin® alone, Abraxane®+VEGF-A or Abraxane®+Avastin®.
# [4] = tested on: cells; test: In vitro cellular cytotoxicity assay; assay type: cell-based; details: Abraxane 1 to 24 nM
# Experimental: Cells were treated with Abraxane® in a range of concentrations (1 to 24 nM).
# [5] = tested on: Luciferase-expressing MDA-MB-231 human breast cancer xenografts; test: Abraxane and Avastin on growth of luciferase-expressing MDA-MB-231 xenografts; assay type: in vivo, female nude (nu/nu) mice
# Experimental: Abraxane®, either alone or in combination, was administered at 10 mg/kg/day daily for 5 days in two cycles separated by 1 week. Some groups were administered Abraxane® at 10 mg/kg daily for 5 days for only one cycle. […] Mice were monitored for tumor growth and drug toxicity. Mice were sacrificed when the mean tumor volume in the saline-treated control group reached 2000 mm^3.
# Tumor growth inhibition (TGI) was calculated by comparing mean tumor volume of test groups to that of the control group at the last measurement of the control group.
# [6] = mouse, in vivo
# Source text: Methods: Toxicity of Abraxane® and Taxotere® was compared in a dose-ranging study in nude mice given the drugs on a q4d×3 schedule.
# [7] = tested on: MDA-MB-435 human breast tumor xenografts; test: HKP and Abraxane in MDA-MB-435 xenografts; assay type: in vivo, mice; details: nineteen weeks of treatment; HKP 250 ug i.v. weekly x16; Abraxane 10 mg/kg/day i.v. x5 days
# Source text: The antiangiogenic activity of small synthetic pro-apoptotic peptides composed of two functional domains, one targeting the CD13 receptors (aminopeptidase N) on tumor microvessels and the other disrupting the mitochondrial membrane following internalization have previously been reported. See Nat Med. 1999 September; 5(9): 1032-8.
# Methods: MDA-MB-435 human tumor xenografts were established at an average tumor volume of 100 mm^3, mice were randomized into groups of 12-13 animals and treated with HKP, Abraxane®, or HKP and Abraxane®. HKP was delivered i.v. (250 ug), once a week, for 16 weeks. Abraxane® was administered i.v., daily for 5 days at 10 mg/kg/day only for the first week of treatment. The Abraxane® dose used was substantially below its MTD (30 mg/kg/day, qd×5) to prevent the tumor from complete regression so effect of HKP could be noted.
compound,measurement,setting,value
CCCCCOC(=O)Nc1nc(=O)n([C@@H]2O[C@H](C)[C@@H](O)[C@H]2O)cc1F [capecitabine],main toxicity related to the agent within the combination,[1],hand foot syndrome
Avastin®: anti-VEGF antibody,metastasis by luciferase activity in tissue extracts,[2],did not significantly inhibit metastasis
same,number of colonies formed,[3],slight reduction in the number of colonies formed
same,effect of addition on in vitro cytotoxicity of Abraxane,[4],increased the in vitro cytotoxicity of Abraxane®
same,% TGI,[5]; Avastin Dose 4 mg/kg,12.56%
same,Mean Tumor Volume (mm^3),[5]; Avastin Dose 4 mg/kg twice a week for 6 weeks,2089 ± 251 mm^3
same,% Complete Regression,"[5]; Avastin Dose 4 mg/kg, day 65",0%
Taxotere®,maximum tolerated dose (MTD),[6],15 mg/kg
CNGRC-GG-d(KLAKLAK)2 [HKP],tumor volume,[7],"4,372 mm^3"
